Laboratory results published in patent US20230226199A1, “DENDRIMER COMPOSITIONS AND METHODS FOR DRUG DELIVERY” (Ashvattha Therapeutics, Inc., priority 2019, published 2023).
pKd: −log10 of the molar value.

Molecular target: JAK1 (Homo sapiens, UniProt P23458)
Experiment: JAK1 binding affinity
Source text: An exemplary conjugation of JAK1 inhibitor Target-007 to a dendrimer is shown below (Structure XXXIII). JAK1 binding affinity of Target-007 is about […] and the binding affinity of dendrimer conjugated Target-007 is about […].

Sequence of JAK1 (P23458 whole entry, species assumed): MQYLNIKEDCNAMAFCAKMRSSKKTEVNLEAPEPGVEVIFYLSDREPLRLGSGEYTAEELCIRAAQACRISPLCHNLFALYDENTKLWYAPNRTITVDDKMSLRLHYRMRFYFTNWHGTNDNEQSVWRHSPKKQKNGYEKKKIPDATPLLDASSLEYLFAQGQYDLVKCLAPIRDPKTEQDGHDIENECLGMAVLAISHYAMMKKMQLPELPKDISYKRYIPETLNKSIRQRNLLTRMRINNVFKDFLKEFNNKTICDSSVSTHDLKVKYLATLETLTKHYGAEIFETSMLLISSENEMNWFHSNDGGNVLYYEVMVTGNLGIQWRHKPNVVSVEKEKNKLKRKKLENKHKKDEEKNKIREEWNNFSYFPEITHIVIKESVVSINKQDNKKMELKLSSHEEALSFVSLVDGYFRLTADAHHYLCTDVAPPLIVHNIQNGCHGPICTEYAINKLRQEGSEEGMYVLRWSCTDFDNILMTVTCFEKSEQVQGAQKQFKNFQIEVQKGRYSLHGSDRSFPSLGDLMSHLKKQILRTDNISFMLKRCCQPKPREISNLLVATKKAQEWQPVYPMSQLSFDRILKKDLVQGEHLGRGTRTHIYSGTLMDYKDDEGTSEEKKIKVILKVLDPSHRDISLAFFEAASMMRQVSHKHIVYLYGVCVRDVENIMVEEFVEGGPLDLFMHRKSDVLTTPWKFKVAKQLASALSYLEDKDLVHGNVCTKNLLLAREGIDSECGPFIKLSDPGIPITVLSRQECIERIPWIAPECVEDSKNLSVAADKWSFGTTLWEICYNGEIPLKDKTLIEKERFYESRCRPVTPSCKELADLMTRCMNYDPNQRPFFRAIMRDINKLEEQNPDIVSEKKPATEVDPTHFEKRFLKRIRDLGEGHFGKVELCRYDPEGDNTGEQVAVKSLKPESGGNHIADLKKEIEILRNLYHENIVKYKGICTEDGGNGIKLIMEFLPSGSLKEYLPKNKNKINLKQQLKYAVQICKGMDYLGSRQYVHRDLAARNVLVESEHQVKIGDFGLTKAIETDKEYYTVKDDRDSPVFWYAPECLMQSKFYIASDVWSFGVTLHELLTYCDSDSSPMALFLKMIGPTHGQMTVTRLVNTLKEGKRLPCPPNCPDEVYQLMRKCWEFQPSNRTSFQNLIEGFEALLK

COc1cc(-c2nc3c(NCC4CCNCC4)c(Cl)cnc3[nH]2)c(F)cc1OCCOCCOCCOCCN=[N+]=[N-] [Target-007] showed a pKd of ~9.00.
